Experimental data as given in publication PMC10819888, “Benzimidazole-Based Derivatives as Apoptotic Antiproliferative Agents: Design, Synthesis, Docking, and Mechanistic Studies” (Molecules, 2024).
Like-named read-outs stand apart in the source and are kept apart here.

Legend:
OVCAR-5 = assay: NCI-60 five-dose assay; type: cell-based, human; details: OVCAR-5 (Ovarian Cancer), 48 h; for GI50 / CC50: Homo sapiens; for GI50: read-out: GI50 Conc. per Cell Line; for CC50: read-out: LC50 (the source's name)
ACHN = assay: NCI-60 five-dose assay; type: cell-based, human; details: ACHN (Renal Cancer), 48 h; for GI50 / CC50: Homo sapiens; for GI50: read-out: GI50 Conc. per Cell Line; for CC50: read-out: LC50 (the source's name)
OVCAR-3 = assay: NCI-60 five-dose assay; type: cell-based, human; details: OVCAR-3 (Ovarian Cancer), 48 h; for GI50 / CC50: Homo sapiens; for GI50: read-out: GI50 Conc. per Cell Line; for CC50: read-out: LC50 (the source's name)
UACC-257 = assay: NCI-60 five-dose assay; type: cell-based, human; details: UACC-257 (Melanoma), 48 h; for GI50 / CC50: Homo sapiens; for GI50: read-out: GI50 Conc. per Cell Line; for CC50: read-out: LC50 (the source's name)
[1] = system: full panel of 60 human tumor cell lines; assay: NCI-60 five-dose assay, full panel; type: cell-based
HOP-92 = assay: NCI-60 five-dose assay; type: cell-based, human; details: HOP-92 (Non-Small Cell Lung Cancer), 48 h; for GI50: read-out: GI50 Conc. per Cell Line
[2] = system: Non-Small Cell Lung Cancer subpanel; assay: NCI-60 five-dose assay, subpanel; type: cell-based, human; details: for GI50: Homo sapiens, Non-Small Cell Lung Cancer, average sensitivity of all subpanel cell lines, read-out: GI50 Subpanel MID b; for GI50 Selectivity Ratio (MID a/MID b): Non-Small Cell Lung Cancer subpanel
SK-OV-3 = assay: NCI-60 five-dose assay; type: cell-based, human; details: SK-OV-3 (Ovarian Cancer), 48 h; for GI50 / CC50: Homo sapiens; for GI50: read-out: GI50 Conc. per Cell Line; for CC50: read-out: LC50 (the source's name)
SR = assay: NCI-60 five-dose assay; type: cell-based, human; details: SR (Leukemia), 48 h; for GI50 / CC50: Homo sapiens; for GI50: read-out: GI50 Conc. per Cell Line; for CC50: read-out: LC50 (the source's name)
HL-60(TB) = assay: NCI-60 five-dose assay; type: cell-based, human; details: HL-60(TB) (Leukemia), 48 h; for GI50 / CC50: Homo sapiens; for GI50: read-out: GI50 Conc. per Cell Line; for CC50: read-out: LC50 (the source's name)
HT29 = assay: NCI-60 five-dose assay; type: cell-based, human; details: HT29 (Colon Cancer), 48 h; for GI50 / CC50: Homo sapiens, HT-29; for GI50: read-out: GI50 Conc. per Cell Line; for CC50: read-out: LC50 (the source's name)
U251 = assay: NCI-60 five-dose assay; type: cell-based, human; details: U251 (CNS Cancer), 48 h; for GI50 / CC50: Homo sapiens, U-251; for GI50: read-out: GI50 Conc. per Cell Line; for CC50: read-out: LC50 (the source's name)
NCI-H522 = assay: NCI-60 five-dose assay; type: cell-based, human; details: NCI-H522 (Non-Small Cell Lung Cancer), 48 h; for GI50 / CC50: Homo sapiens; for GI50: read-out: GI50 Conc. per Cell Line; for CC50: read-out: LC50 (the source's name)
EGFR = EGFR (Homo sapiens, UniProt P00533); assay: EGFR inhibitory assay
EGFR, sequence (P00533 669-1210): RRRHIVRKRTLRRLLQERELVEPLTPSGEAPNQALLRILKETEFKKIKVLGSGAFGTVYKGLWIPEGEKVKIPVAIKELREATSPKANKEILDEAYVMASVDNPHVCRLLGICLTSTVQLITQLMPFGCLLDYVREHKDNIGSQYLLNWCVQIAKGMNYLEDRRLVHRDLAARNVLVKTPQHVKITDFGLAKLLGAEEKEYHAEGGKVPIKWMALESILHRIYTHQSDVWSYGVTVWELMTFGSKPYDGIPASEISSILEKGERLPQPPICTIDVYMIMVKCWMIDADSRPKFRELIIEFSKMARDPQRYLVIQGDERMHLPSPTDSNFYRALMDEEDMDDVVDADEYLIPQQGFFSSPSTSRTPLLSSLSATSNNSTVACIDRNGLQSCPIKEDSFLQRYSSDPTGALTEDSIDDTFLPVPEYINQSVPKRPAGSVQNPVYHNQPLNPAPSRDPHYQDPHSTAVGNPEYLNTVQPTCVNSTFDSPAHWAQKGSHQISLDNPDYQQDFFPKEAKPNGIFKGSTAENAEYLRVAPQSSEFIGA

Leukemia subpanel = assay: NCI-60 five-dose assay, subpanel; type: cell-based, human; details: for GI50: Homo sapiens, Leukemia, average sensitivity of all subpanel cell lines, read-out: GI50 Subpanel MID b
Melanoma subpanel = assay: NCI-60 five-dose assay, subpanel; type: cell-based, human; details: for GI50: Homo sapiens, Melanoma, average sensitivity of all subpanel cell lines, read-out: GI50 Subpanel MID b; for GI50 Selectivity Ratio (MID a/MID b): Melanoma subpanel
BRAF^V600E = assay: biochemical
BRAF^V600E, sequence (P28028 whole entry V585E): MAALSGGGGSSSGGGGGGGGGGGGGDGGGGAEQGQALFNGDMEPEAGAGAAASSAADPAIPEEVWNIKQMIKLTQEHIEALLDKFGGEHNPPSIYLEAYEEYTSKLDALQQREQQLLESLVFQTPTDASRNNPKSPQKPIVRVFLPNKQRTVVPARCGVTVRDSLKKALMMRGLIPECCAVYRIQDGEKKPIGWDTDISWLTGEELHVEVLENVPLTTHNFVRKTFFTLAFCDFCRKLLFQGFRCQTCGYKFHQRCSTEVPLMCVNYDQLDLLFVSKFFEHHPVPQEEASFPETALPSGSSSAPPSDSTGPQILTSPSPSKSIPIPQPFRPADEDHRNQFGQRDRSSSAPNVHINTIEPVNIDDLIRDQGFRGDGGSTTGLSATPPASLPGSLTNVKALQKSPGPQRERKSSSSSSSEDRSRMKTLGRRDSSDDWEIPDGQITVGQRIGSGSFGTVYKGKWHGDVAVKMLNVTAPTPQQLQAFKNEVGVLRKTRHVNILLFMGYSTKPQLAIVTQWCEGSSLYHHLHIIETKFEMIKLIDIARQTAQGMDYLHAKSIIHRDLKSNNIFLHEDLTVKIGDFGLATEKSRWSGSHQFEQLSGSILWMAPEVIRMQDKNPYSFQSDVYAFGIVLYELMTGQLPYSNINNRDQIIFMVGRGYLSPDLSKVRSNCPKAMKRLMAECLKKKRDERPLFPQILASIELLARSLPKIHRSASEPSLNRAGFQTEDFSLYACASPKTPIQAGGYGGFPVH

A549/ATCC = assay: NCI-60 five-dose assay; type: cell-based, human; details: A549/ATCC (Non-Small Cell Lung Cancer), 48 h; for GI50 / CC50: Homo sapiens; for GI50: read-out: GI50 Conc. per Cell Line; for CC50: read-out: LC50 (the source's name)
SN12C = assay: NCI-60 five-dose assay; type: cell-based, human; details: SN12C (Renal Cancer), 48 h; for GI50 / CC50: Homo sapiens; for GI50: read-out: GI50 Conc. per Cell Line; for CC50: read-out: LC50 (the source's name)
BT-549 = assay: NCI-60 five-dose assay; type: cell-based, human; details: BT-549 (Breast Cancer), 48 h; for GI50 / CC50: Homo sapiens; for GI50: read-out: GI50 Conc. per Cell Line; for CC50: read-out: LC50 (the source's name)
CAKI-1 = assay: NCI-60 five-dose assay; type: cell-based, human; details: CAKI-1 (Renal Cancer), 48 h; for GI50 / CC50: Homo sapiens; for GI50: read-out: GI50 Conc. per Cell Line; for CC50: read-out: LC50 (the source's name)
[3] = average sensitivity of all cell lines, read-out: MID a (GI50)
[4] = five-dose assay, range over cell lines, read-out: GI50 range over the examined cell lines

Structure (SMILES): O=C(NN=Cc1ccc([N+](=O)[O-])cc1)c1ccc2[nH]c(-c3ccc(Cl)cc3)nc2c1 [Compound 4c, N′-(4-Nitrobenzylidene)-2-(4-chlorophenyl)-1H-benzimidazole-5-carbohydrazide]
- GI50 (OVCAR-5): 4.43 µM
- CC50 (OVCAR-5): > 100 µM
- TGI (OVCAR-5): 37.80 µM
- TGI (ACHN): 31.90 µM
- GI50 (ACHN): 4.36 µM
- CC50 (ACHN): > 100 µM
- GI50 (OVCAR-3): 3.25 µM
- CC50 (OVCAR-3): 40.9 µM
- TGI (OVCAR-3): 8.23 µM
- GI50 (UACC-257): 3.37 µM
- CC50 (UACC-257): > 100 µM
- TGI (UACC-257): 15.40 µM
- GI50 [1, 3]: 3.28 µM
- GI50 [1, 4]: 0.42 to 8.99 µM
- TGI (HOP-92): 7.52 µM
- GI50 (HOP-92; Homo sapiens): 0.985 µM
- GI50 [2]: 3.52 µM
- GI50 Selectivity Ratio (MID a/MID b) [2]: 0.93
- GI50 (SK-OV-3): 11.4 µM
- CC50 (SK-OV-3): > 100 µM
- TGI (SK-OV-3): 39.60 µM
- GI50 (SR): 0.566 µM
- CC50 (SR): > 100 µM
- TGI (SR): 4.87 µM
- TGI (HL-60(TB)): 5.73 µM
- GI50 (HL-60(TB)): 0.797 µM
- CC50 (HL-60(TB)): > 100 µM
- TGI (HT29): >100 µM
- GI50 (HT29): 3.02 µM
- CC50 (HT29): > 100 µM
- GI50 (U251): 2.92 µM
- CC50 (U251): 48 µM
- TGI (U251): 10.80 µM
- GI50 (NCI-H522): 3.05 µM
- CC50 (NCI-H522): > 100 µM
- TGI (NCI-H522): 11.70 µM
- IC50 (EGFR): 0.11 ± 0.01 µM
- GI50 (Leukemia subpanel): 0.55 µM
- GI50 (Melanoma subpanel): 2.87 µM
- GI50 Selectivity Ratio (MID a/MID b) (Melanoma subpanel): 1.14
- IC50 (BRAF^V600E): 0.31 ± 0.07 µM
- TGI (A549/ATCC): 24.10 µM
- GI50 (A549/ATCC): 3.98 µM
- CC50 (A549/ATCC): > 100 µM
- GI50 (SN12C): 3.14 µM
- CC50 (SN12C): > 100 µM
- TGI (SN12C): 18.10 µM
- TGI (BT-549): 9.70 µM
- GI50 (BT-549): 2.84 µM
- CC50 (BT-549): 50.5 µM
- TGI (CAKI-1): 16.10 µM
- GI50 (CAKI-1): 3.49 µM
- CC50 (CAKI-1): 85.4 µM

Structure (SMILES): O=C(NN=Cc1ccc(F)cc1)c1ccc2[nH]c(-c3ccc(Cl)cc3)nc2c1 [Compound 4d, N′-(4-Fluorobenzylidene)-2-(4-chlorophenyl)-1H-benzimidazole-5-carbohydrazide]
- IC50 (EGFR): 0.68 ± 0.05 µM

Structure (SMILES): O=C(NN=Cc1ccc(Cl)cc1)c1ccc2[nH]c(-c3ccc(Cl)cc3)nc2c1 [Compound 4e, N′-(4-Chlorobenzylidene)-2-(4-chlorophenyl)-1H-benzimidazole-5-carbohydrazide]
- GI50 (OVCAR-5): 1.85 µM
- CC50 (OVCAR-5): 8.52 µM
- TGI (OVCAR-5): 3.97 µM
- TGI (ACHN): 3.17 µM
- GI50 (ACHN): 1.73 µM
- CC50 (ACHN): 5.78 µM
- GI50 (OVCAR-3): 1.84 µM
- CC50 (OVCAR-3): 6.28 µM
- TGI (OVCAR-3): 3.39 µM
- GI50 (UACC-257): 2.14 µM
- CC50 (UACC-257): 11.6 µM
- TGI (UACC-257): 4.72 µM
- GI50 [1, 3]: 1.79 µM
- LC50 ([1]; five-dose assay, range over cell lines): 5.73 to 77.9 µM
- GI50 [1, 4]: 0.97 to 4.93 µM
- TGI (HOP-92): 3.53 µM
- LC50 (50% lethal concentration) (HOP-92; Homo sapiens): 7.47 µM
- GI50 (HOP-92; Homo sapiens): 1.67 µM
- GI50 [2]: 1.9 µM
- GI50 Selectivity Ratio (MID a/MID b) [2]: 0.94
- GI50 (SK-OV-3): 1.79 µM
- CC50 (SK-OV-3): 11 µM
- TGI (SK-OV-3): 4.31 µM
- GI50 (SR): 1.01 µM
- CC50 (SR): 37 µM
- TGI (SR): 3.95 µM
- TGI (HL-60(TB)): 6.53 µM
- GI50 (HL-60(TB)): 1.85 µM
- CC50 (HL-60(TB)): 54.8 µM
- TGI (HT29): 5.47 µM
- GI50 (HT29): 1.97 µM
- CC50 (HT29): 44.1 µM
- GI50 (U251): 2.1 µM
- CC50 (U251): 8.35 µM
- TGI (U251): 4.18 µM
- GI50 (NCI-H522): 2.24 µM
- CC50 (NCI-H522): 77.9 µM
- TGI (NCI-H522): 5.85 µM
- IC50 (EGFR): 0.09 ± 0.01 µM
- GI50 (Leukemia subpanel): 1.33 µM
- GI50 Selectivity Ratio (MID a/MID b) (Leukemia subpanel; Leukemia subpanel): 1.35
- GI50 (Melanoma subpanel): 1.77 µM
- GI50 Selectivity Ratio (MID a/MID b) (Melanoma subpanel): 1.01
- IC50 (BRAF^V600E): 0.2 ± 0.02 µM
- TGI (A549/ATCC): 4.53 µM
- GI50 (A549/ATCC): 2.16 µM
- CC50 (A549/ATCC): 9.52 µM
- GI50 (SN12C): 1.96 µM
- CC50 (SN12C): 9.26 µM
- TGI (SN12C): 4.26 µM
- TGI (BT-549): 2.13 µM
- GI50 (BT-549): 4.93 µM
- CC50 (BT-549): 75.8 µM
- TGI (CAKI-1): 3.29 µM
- GI50 (CAKI-1): 1.7 µM
- CC50 (CAKI-1): 6.37 µM

Structure (SMILES): COc1cc(/C=N/NC(=O)c2ccc3[nH]c(-c4ccc(Cl)cc4)nc3c2)cc(OC)c1OC [Compound 4h, N′-(3,4,5-Trimethoxybenzylidene)-2-(4-chlorophenyl)-1H-benzimidazole-5 carbohydrazide]
- IC50 (EGFR): 0.56 ± 0.05 µM
- IC50 (BRAF^V600E): 0.82 ± 0.06 µM
